Data from patent CN1202821A, “用于从面颊释放药物的组合物和方法” (Theratech Inc, priority 1995, dated 1998).
“And” between values parts separate entries of the source, which are not always exact repeats. Equal entries are not always repeated.

What was measured:
[1] = Dog buccal mucosa model: insulin bilayer tablet, blood glucose; format: in vivo; conditions: mean of 4 dogs, 1 buccal tablet of 0.375 inch, 5 U/kg
[2] = Buccal delivery of salmon calcitonin from bilayer tablets in dogs (Table 3); format: in vivo, dog; conditions: individual dogs, 2 tablets
[3] = Double-blind, placebo-controlled crossover study of buccal GLP-1(7-36) amide bilayer tablet: blood glucose, plasma insulin, plasma glucagon; format: in vivo, human; conditions: 400 μg buccal bilayer tablet, healthy volunteers
[4] = buccal, dose 119 nmol

胰岛素: human insulin in the buccal bilayer tablet of Example 6
control of blood glucose concentration by buccal delivery [1]: 有效的

CC(C)C[C@H](NC(=O)[C@H](CCCCN)NC(=O)CNC(=O)[C@H](CC(C)C)NC(=O)[C@@H](NC(=O)[C@@H]1CSSC[C@H](N)C(=O)N[C@@H](CO)C(=O)N[C@@H](CC(N)=O)C(=O)N[C@@H](CC(C)C)C(=O)N[C@@H](CO)C(=O)N[C@@H]([C@@H](C)O)C(=O)N1)C(C)C)C(=O)N[C@@H](CO)C(=O)N[C@@H](CCC(N)=O)C(=O)N[C@@H](CCC(=O)O)C(=O)N[C@@H](CC(C)C)C(=O)N[C@@H](Cc1c[nH]cn1)C(=O)N[C@@H](CCCCN)C(=O)N[C@@H](CC(C)C)C(=O)N[C@@H](CCC(N)=O)C(=O)N[C@H](C(=O)N[C@@H](Cc1ccc(O)cc1)C(=O)N1CCC[C@H]1C(=O)N[C@@H](CCCNC(=N)N)C(=O)N[C@H](C(=O)N[C@@H](CC(N)=O)C(=O)N[C@H](C(=O)NCC(=O)N[C@@H](CO)C(=O)NCC(=O)N[C@H](C(=O)N1CCC[C@H]1C(N)=O)[C@@H](C)O)[C@@H](C)O)[C@@H](C)O)[C@@H](C)O [鲑鱼降钙素]
ng吸收 (ng absorbed) ([2]; 0.71 cm2): 6,535 ng and 23,379 ng
ng吸收 (ng absorbed) ([2]; 1.27 cm2): 72,958 ng and 16,461 ng and 20,989 ng and 17,614 ng

CC[C@H](C)[C@H](NC(=O)[C@H](Cc1ccccc1)NC(=O)[C@H](CCC(=O)O)NC(=O)[C@H](CCCCN)NC(=O)[C@H](C)NC(=O)[C@H](C)NC(=O)[C@H](CCC(N)=O)NC(=O)CNC(=O)[C@H](CCC(=O)O)NC(=O)[C@H](CC(C)C)NC(=O)[C@H](Cc1ccc(O)cc1)NC(=O)[C@H](CO)NC(=O)[C@H](CO)NC(=O)[C@@H](NC(=O)[C@H](CC(=O)O)NC(=O)[C@H](CO)NC(=O)[C@@H](NC(=O)[C@H](Cc1ccccc1)NC(=O)[C@@H](NC(=O)CNC(=O)[C@H](CCC(=O)O)NC(=O)[C@H](C)NC(=O)[C@@H](N)Cc1c[nH]cn1)[C@@H](C)O)[C@@H](C)O)C(C)C)C(=O)N[C@@H](C)C(=O)N[C@@H](Cc1c[nH]c2ccccc12)C(=O)N[C@@H](CC(C)C)C(=O)N[C@H](C(=O)N[C@@H](CCCCN)C(=O)NCC(=O)N[C@@H](CCCNC(=N)N)C(N)=O)C(C)C [GLP-1(7-36)酰胺]
hypoglycaemia [3]: 没有导致低血糖症
生物利用度 (bioavailability) ([4]; individual subjects 901-907, listed as GLP-1(η-36)酰胺): 8.04 % and 6.40 % and 10.01 %
生物利用度 (bioavailability), mean ([4]; mean (平均) of subjects): 7.08 %
